# Source: patent publication US11191742B2, “Methods of treating neurodegenerative disorders in a particular population” (ALZHEON, INC., priority 2015, dated 2021)
# Tests used:
# Format in all cases: in vivo, human
# [1] = tested on: APOE4/4 homozygous patients with Alzheimer's disease; assay: Phase 3 trials of tramiprosate, ADAS-Cog and CDR-SB by baseline MMSE, APOE4/4 homozygous subjects; conditions: 150 mg BID
# Description: Analysis of the efficacy or tramiprosate in APOE4/4 homozygous subjects based on baseline MMSE was performed to evaluate for differences in drug response between Mild and Moderate patients. […] analyses were performed on the following baseline MMSE categories: Mild-to-Moderate AD population (baseline MMSE 16-26 inclusive), Mild AD population (baseline MMSE 20-26 inclusive), and the More Mild AD population (baseline MMSE 22-26 inclusive). The data is shown below in FIG. 7, panels A and B.
# [2] = tested on: APOE4 heterozygous patients with Alzheimer's disease; assay: Phase 3 trials of tramiprosate, CDR-SB score, heterozygous APOE4+ patients; conditions: Heterozygous APOE4+ patients ≤85 years
# Description: (§1) The delta value in all of these tables is calculated by measuring the increase in score over baseline for each patient in a treatment group and obtaining the mean increase for such group and then subtracting that value from the mean increase in score over baseline for all patients in the placebo group. Thus, a positive delta value in these tables represents an improvement over the placebo group. Phase 3 human clinical trials of tramiprosate to treat Alzheimer's disease at doses of 100 mg BID and 150 mg BID for up to 78 weeks were run in both North America and Europe (1691 total patients enrolled). Placebos in both trials were treatment with donepezil either alone or in combination with memantine. ADAS-Cog scores and CDR-SB scores were obtained every 13 weeks for patients that remained in the trial. The patients were genotyped for APOE4 and the severity of their disease was measured using MMSE prior to the beginning of treatment. The data from both trials were merged for certain statistical analyses. […] We then performed additional subgroup analysis, subgrouping by APOE4 genotype/allele status (APOE4 heterozygous or APOE4 homozygous) and by disease severity (mild vs moderate) to determine if the number of c alleles and/or the severity of disease predicted a better outcome of tramiprosate therapy. […] In Table 4, *control treatment is donepezil either alone or in combination with memantine. Positive delta values quantitate the amount by which average increase in CDR-SB Score points above baseline for the control group exceeded the average increase in CDR-SB Score points above baseline for the treatment group.
# [3] = tested on: APOE4+ patients with Alzheimer's disease; assay: Phase 3 trials of tramiprosate, CDR-SB score, all APOE4+ patients; conditions: for CDR-SB Score Change over Standard of Care (Δ improvement vs control): All APOE4+ patients ≤85 years
# Description: as §1, with “2,” for “4,”
# [4] = Mild (MMSE 20-26), 100 mg BID, 52 weeks
# [5] = Mild (MMSE 20-26), 100 mg BID, 65 weeks
# [6] = Mild (MMSE 20-26), 100 mg BID, 78 weeks
# [7] = Mild (MMSE 20-26), 150 mg BID, 52 weeks
# [8] = Mild (MMSE 20-26), 150 mg BID, 65 weeks
# [9] = Mild (MMSE 20-26), 150 mg BID, 78 weeks
# [10] = Mild-to-Moderate (MMSE 16-26), 100 mg BID, 52 weeks
# [11] = Mild-to-Moderate (MMSE 16-26), 100 mg BID, 65 weeks
# [12] = Mild-to-Moderate (MMSE 16-26), 100 mg BID, 78 weeks
# [13] = Mild-to-Moderate (MMSE 16-26), 150 mg BID, 52 weeks
# [14] = Mild-to-Moderate (MMSE 16-26), 150 mg BID, 65 weeks
# [15] = Mild-to-Moderate (MMSE 16-26), 150 mg BID, 78 weeks
# [16] = Moderate (MMSE 16-19), 100 mg BID, 52 weeks
# [17] = Moderate (MMSE 16-19), 100 mg BID, 65 weeks
# [18] = Moderate (MMSE 16-19), 100 mg BID, 78 weeks
# [19] = Moderate (MMSE 16-19), 150 mg BID, 52 weeks
# [20] = Moderate (MMSE 16-19), 150 mg BID, 65 weeks
# [21] = Moderate (MMSE 16-19), 150 mg BID, 78 weeks
compound,measurement,setting,value
"NCCCS(=O)(=O)O [Tramiprosate, 3-amino-1-propanesulfonic acid]",Improvement compared with patients with lower MMSE at baseline,[1]; Mild AD (baseline MMSE ≥20) or More Mild AD (baseline MMSE ≥22),higher improvement
same,Efficacy and cognitive benefit by baseline MMSE,"[1]; baseline MMSE ≥22 (More Mild), 78 weeks",highest efficacy and a sustained cognitive benefit
same,CDR-SB Score Change over Standard of Care (Δ improvement vs control),[2]; [4],0.2 points
same,CDR-SB Score Change over Standard of Care (Δ improvement vs control),[2]; [5],0.3 points
same,CDR-SB Score Change over Standard of Care (Δ improvement vs control),[2]; [6],0.3 points
same,CDR-SB Score Change over Standard of Care (Δ improvement vs control),[2]; [7],0.1 points
same,CDR-SB Score Change over Standard of Care (Δ improvement vs control),[2]; [8],−0.1 points
same,CDR-SB Score Change over Standard of Care (Δ improvement vs control),[2]; [9],0 points
same,CDR-SB Score Change over Standard of Care (Δ improvement vs control),[2]; [10],0.5 points
same,CDR-SB Score Change over Standard of Care (Δ improvement vs control),[2]; [11],0.5 points
same,CDR-SB Score Change over Standard of Care (Δ improvement vs control),[2]; [12],0.6 points
same,CDR-SB Score Change over Standard of Care (Δ improvement vs control),[2]; [13],0.4 points
same,CDR-SB Score Change over Standard of Care (Δ improvement vs control),[2]; [14],0.3 points
same,CDR-SB Score Change over Standard of Care (Δ improvement vs control),[2]; [15],0.50 points
same,CDR-SB Score Change over Standard of Care (Δ improvement vs control),[2]; [16],1.00 points
same,CDR-SB Score Change over Standard of Care (Δ improvement vs control),[2]; [17],1.00 points
same,CDR-SB Score Change over Standard of Care (Δ improvement vs control),[2]; [18],1.00 points
same,CDR-SB Score Change over Standard of Care (Δ improvement vs control),[2]; [19],1.00 points
same,CDR-SB Score Change over Standard of Care (Δ improvement vs control),[2]; [20],1.1 points
same,CDR-SB Score Change over Standard of Care (Δ improvement vs control),[2]; [21],1.5 points
same,Effect on CDR-SB compared with the placebo,"[3]; APOE4+ subgroup, both 100 mg and 150 mg treatment groups",statistically significant effect
same,CDR-SB Score Change over Standard of Care (Δ improvement vs control),[3]; [4],0.14 points
same,CDR-SB Score Change over Standard of Care (Δ improvement vs control),[3]; [5],0.34 points
same,CDR-SB Score Change over Standard of Care (Δ improvement vs control),[3]; [6],0.35 points
same,CDR-SB Score Change over Standard of Care (Δ improvement vs control),[3]; [7],0.16 points
same,CDR-SB Score Change over Standard of Care (Δ improvement vs control),[3]; [8],0.2 points
same,CDR-SB Score Change over Standard of Care (Δ improvement vs control),[3]; [9],0.18 points
same,CDR-SB Score Change over Standard of Care (Δ improvement vs control),[3]; [10],0.26 points
same,CDR-SB Score Change over Standard of Care (Δ improvement vs control),[3]; [11],0.5 points
same,CDR-SB Score Change over Standard of Care (Δ improvement vs control),[3]; [12],0.55 points
same,CDR-SB Score Change over Standard of Care (Δ improvement vs control),[3]; [13],0.44 points
same,CDR-SB Score Change over Standard of Care (Δ improvement vs control),[3]; [14],0.5 points
same,CDR-SB Score Change over Standard of Care (Δ improvement vs control),[3]; [15],0.6 points
same,CDR-SB Score Change over Standard of Care (Δ improvement vs control),[3]; [16],0.56 points
same,CDR-SB Score Change over Standard of Care (Δ improvement vs control),[3]; [17],0.83 points
same,CDR-SB Score Change over Standard of Care (Δ improvement vs control),[3]; [18],0.98 points
same,CDR-SB Score Change over Standard of Care (Δ improvement vs control),[3]; [19],1.00 points
same,CDR-SB Score Change over Standard of Care (Δ improvement vs control),[3]; [20],1.12 points
same,CDR-SB Score Change over Standard of Care (Δ improvement vs control),[3]; [21],1.53 points
